# Results published in publication PMC10257182, “Discovery of senolytics using machine learning” (Nature Communications, 2023).
# Where “and” joins values, the source holds several entries; their conditions need not be identical. Identical values can stand only once.
# How the values were obtained:
# Format in all cases: cell-based, human
# [1] = test system: non-senescent control IMR90 ER:RAS cells; experiment: Nuclei count (Hoechst, high content imaging) senolytic assay, OIS model, non-senescent control cells; conditions: for Mean % Cell Survival: mean n=3 (Fig 3C)
# Outline: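 Readout is automated image-based counting of Hoechst-stained nuclei per well, with loss of cells relative to untreated wells taken as cell death. Senescent (4-OHT, 100 nM) and control IMR90 ER:RAS cells were exposed to compounds for 72 h at 10 nM to 10 μM final.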
# [2] = test system: senescent A549 cells (etoposide-induced); experiment: Nuclei count senolytic assay, therapy-induced senescence (TIS) model, senescent cells; conditions: Senescent cells, mean
# Outline: (§1)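 Read-out is the imaged count of Hoechst 33342-stained nuclei (2 μg/ml final) in fixed, permeabilised A549 cells. Senescent cells had received etoposide at 100 μM for 48 h plus three days recovery in normal media. Compound exposure lasted 72 h across a 10-point […] range, 10 μM to 10 nM.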
# [3] = test system: non-senescent control A549 cells; experiment: Nuclei count senolytic assay, TIS model, non-senescent control cells; conditions: Control cells, mean
# Outline: as §1
smiles,measurement,setting,value
"C=Cc1c(C)c2cc3nc(cc4[nH]c(cc5nc(cc1[nH]2)C(C)=C5CCC(=O)O)c(CCC(=O)OC)c4C)[C@@]1(C)C3=CC=C(C(=O)OC)[C@H]1C(=O)OC [Verteporfin, verteporfin, reference compound]",% Cell Survival,"[1]; Control cells, log (dose) [M] -5, individual replicates, SUP FIG 4C",101.159% and 129.718% and 89.9175%
same,% Cell Survival,"[1]; Control cells, log (dose) [M] -5.33, individual replicates, SUP FIG 4C",94.2029% and 128.701% and 95.0504%
same,% Cell Survival,"[1]; Control cells, log (dose) [M] -5.66, individual replicates, SUP FIG 4C",94.8792% and 127.571% and 91.1091%
same,% Cell Survival,"[1]; Control cells, log (dose) [M] -6, individual replicates, SUP FIG 4C",109.082% and 120% and 89.2759%
same,% Cell Survival,"[1]; Control cells, log (dose) [M] -6.33, individual replicates, SUP FIG 4C",132.367% and 79.661% and 117.324%
same,% Cell Survival,"[1]; Control cells, log (dose) [M] -6.66, individual replicates, SUP FIG 4C",84.5411% and 110.056% and 78.5518%
same,% Cell Survival,"[1]; Control cells, log (dose) [M] -7, individual replicates, SUP FIG 4C",102.222% and 109.492% and 85.1512%
same,% Cell Survival,"[1]; Control cells, log (dose) [M] -7.33, individual replicates, SUP FIG 4C",97.1981% and 115.141% and 84.143%
same,% Cell Survival,"[1]; Control cells, log (dose) [M] -7.66, individual replicates, SUP FIG 4C",102.705% and 116.158% and 105.408%
same,% Cell Survival,"[1]; Control cells, log (dose) [M] -8, individual replicates, SUP FIG 4C",88.6957% and 107.684% and 93.9505%
same,Mean % Cell Survival,"[1]; Control, log (dose) [M] -5, 72 h",106.931%
same,Mean % Cell Survival,"[1]; Control, log (dose) [M] -5.33, 72 h",105.985%
same,Mean % Cell Survival,"[1]; Control, log (dose) [M] -5.66, 72 h",104.52%
same,Mean % Cell Survival,"[1]; Control, log (dose) [M] -6, 72 h",106.119%
same,Mean % Cell Survival,"[1]; Control, log (dose) [M] -6.33, 72 h",109.784%
same,Mean % Cell Survival,"[1]; Control, log (dose) [M] -6.66, 72 h",91.0498%
same,Mean % Cell Survival,"[1]; Control, log (dose) [M] -7, 72 h",98.955%
same,Mean % Cell Survival,"[1]; Control, log (dose) [M] -7.33, 72 h",98.8274%
same,Mean % Cell Survival,"[1]; Control, log (dose) [M] -7.66, 72 h",108.09%
same,Mean % Cell Survival,"[1]; Control, log (dose) [M] -8, 72 h",96.7766%
same,% Cell Survival,"[1]; Control, log (dose) [M] -5",103.991% and 103.701% and 133.622%
same,% Cell Survival,"[1]; Control, log (dose) [M] -5.33",95.6459% and 122.354% and 108.369%
same,% Cell Survival,"[1]; Control, log (dose) [M] -5.66",83.672% and 98.7417% and 101.948%
same,% Cell Survival,"[1]; Control, log (dose) [M] -6",86.9376% and 90.2295% and 99.9278%
same,% Cell Survival,"[1]; Control, log (dose) [M] -6.33",101.524% and 93.2642% and 93.3622%
same,% Cell Survival,"[1]; Control, log (dose) [M] -6.66",98.4035% and 102.221% and 102.958%
same,% Cell Survival,"[1]; Control, log (dose) [M] -7",87.0827% and 92.5981% and 92.8571%
same,% Cell Survival,"[1]; Control, log (dose) [M] -7.33",115.893% and 95.1147% and 114.069%
same,% Cell Survival,"[1]; Control, log (dose) [M] -7.66",103.991% and 94.8187% and 102.958%
same,% Cell Survival,"[1]; Control, log (dose) [M] -8",101.306% and 100.444% and 92.0635%
same,Mean % Cell Survival,[2]; log (dose) [M] -5,118.472%
same,Mean % Cell Survival,[2]; log (dose) [M] -5.33,98.5505%
same,Mean % Cell Survival,[2]; log (dose) [M] -5.66,115.47%
same,Mean % Cell Survival,[2]; log (dose) [M] -6,116.11%
same,Mean % Cell Survival,[2]; log (dose) [M] -6.33,114.215%
same,Mean % Cell Survival,[2]; log (dose) [M] -6.66,107.66%
same,Mean % Cell Survival,[2]; log (dose) [M] -7,100.361%
same,Mean % Cell Survival,[2]; log (dose) [M] -7.33,89.0589%
same,Mean % Cell Survival,[2]; log (dose) [M] -7.66,106.923%
same,Mean % Cell Survival,[2]; log (dose) [M] -8,100.292%
same,Mean % Cell Survival,[3]; log (dose) [M] -5,113.771%
same,Mean % Cell Survival,[3]; log (dose) [M] -5.33,108.79%
same,Mean % Cell Survival,[3]; log (dose) [M] -5.66,94.7872%
same,Mean % Cell Survival,[3]; log (dose) [M] -6,92.365%
same,Mean % Cell Survival,[3]; log (dose) [M] -6.33,96.0501%
same,Mean % Cell Survival,[3]; log (dose) [M] -6.66,101.194%
same,Mean % Cell Survival,[3]; log (dose) [M] -7,90.846%
same,Mean % Cell Survival,[3]; log (dose) [M] -7.33,108.359%
same,Mean % Cell Survival,[3]; log (dose) [M] -7.66,100.589%
same,Mean % Cell Survival,[3]; log (dose) [M] -8,97.9379%
